These results are taken from article PMC11081424 (Protein Science : A Publication of the Protein Society, 2024).

The target of the experiment is T1, TPARED (Comamonas sp., UniProt Q3C1E0).
T1 sequence (Q3C1E0 1-336): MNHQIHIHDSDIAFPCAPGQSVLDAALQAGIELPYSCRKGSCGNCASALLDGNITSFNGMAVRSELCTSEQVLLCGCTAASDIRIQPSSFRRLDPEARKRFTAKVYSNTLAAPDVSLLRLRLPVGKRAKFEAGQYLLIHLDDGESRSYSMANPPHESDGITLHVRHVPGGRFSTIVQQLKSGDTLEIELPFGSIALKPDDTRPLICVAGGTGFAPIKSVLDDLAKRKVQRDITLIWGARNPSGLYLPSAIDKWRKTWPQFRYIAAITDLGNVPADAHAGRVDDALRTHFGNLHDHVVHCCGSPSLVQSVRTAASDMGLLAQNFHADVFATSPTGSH
The experiment is described as follows: FAD released by acid denaturation, UV/vis at […] nm. It counts as binding. As to conditions: as purified, three purifications.

For the compound `Cc1cc2nc3c(=O)[nH]c(=O)nc-3n(C[C@H](O)[C@H](O)[C@H](O)COP(=O)(O)OP(=O)(O)OC[C@H]3O[C@@H](n4cnc5c(N)ncnc54)[C@H](O)[C@@H]3O)c2cc1C` [FAD], the “equivalents of FAD per protein” value is 0.95 ± 0.08 equivalents.
